Our source for the Km values is paper PMC12485897, “Characterization of the thermophilic xylanase Fsa02490Xyn from the hyperthermophile Fervidibacter sacchari belonging to glycoside hydrolase family 10” (FEBS Open Bio, 2025).

The test system of the assay is T1, Fsa02490Xyn.
T1 construct: TAT signal peptide removed (mature 430 residues, 48 kDa); N-terminal 6xHis tag, GB1 solubility tag and TEV site kept (~53 kDa expected); codon-optimized, pET21b, E. coli T7 Express; monomer
The experiment in a line: para-nitrophenol release, absorbance […] nm; Lineweaver-Burk plot. It counts as biochemical, Fervidibacter sacchari. As to conditions: pH 7.5, 90 °C, 11 min, 0.697 μM enzyme.

On to `O=[N+]([O-])c1ccc(O[C@@H]2OC[C@@H](O[C@@H]3OC[C@@H](O)[C@H](O)[C@H]3O)[C@H](O)[C@H]2O)cc1` [pNPX2], for which the Km amounted to 2380 µM.
